According to publication PMC11775380, “Discovery of Novel Nav1.7-Selective Inhibitors with the 1H-Indole-3-Propionamide Scaffold for Effective Pain Relief” (Research, 2025):

Target: T1, human Nav1.7 (hNav1.7) (Homo sapiens, UniProt Q15858)
T1 construct: expressed in transfected cells; host or cells: HEK293T
Experiment: Whole-cell patch-clamp inhibition of Nav1.7 currents in transfected HEK293T cells
Format: cell-based
Conditions: 10 μM compound, inhibition rate of Nav1.7; for inhibition at 10 µM: HEK-293T, read-out: Inhibitory activity (10 μM)
Protocol: Human embryonic kidney (HEK) 293T (ATCC CRL-3216) and ND7/23 cells (National Collection of Authenticated Cell Cultures SCSP-5026) were cultured under standard conditions (5% CO2, 37 °C) in Dulbecco’s modified Eagle’s medium (DMEM) containing 10% fetal bovine serum and 1% penicillin-streptomycin solution(all from Gibco, Thermo Fisher Scientific, Waltham, MA, USA). When the cells reached 70% to 90% confluence, human Nav1.2 (hNav1.2), human Nav1.3 (hNav1.3), human Nav1.4 (hNav1.4), human Nav1.5 (hNav1.5), and mouse Nav1.6 (mNav1.6) channel plasmids were cotransfected with enhanced green fluorescent protein (eGFP) into HEK293T cells. Additionally, plasmids expressing β1 and β2 subunits tagged with eGFP were cotransfected with the human Nav1.7 (hNav1.7) channel into HEK293T cells. Human Nav1.8 (hNav1.8) was transiently transfected into ND7/23 cells, along with eGFP, using Lipofectamine 2000 (Invitrogen), adhering strictly to the manufacturer’s protocol. For manual patch-clamp experiments, the cells were plated onto glass coverslips and used within 20 to 48 h of transfection.
Whole-cell patch-clamp recordings were conducted at 25 ± 2 °C, utilizing an EPC 10USB patch-clamp amplifier (HEKA Elektronik, Lambrecht, Germany). Pipettes, with access resistance between 2.0 and 3.0 MΩ, were pulled from borosilicate glass capillary tubes using a 2-step vertical microelectrode puller (PC-10, Narishige Group, Tokyo, Japan). Voltage-clamp recordings were obtained with PatchMaster software v2 × 73 (HEKA Elektronik) 5 min after establishing whole-cell configuration, sampled at 20 kHz, and filtered at 5 kHz. To minimize voltage errors, 80% series resistance compensation was applied. Pipettes were filled with 140 mM CsF, 10 mM NaCl, 1 mM EGTA, and 10 mM HEPES (pH=7.4, adjusted with CsOH). The external solution contained 140 mM NaCl, 2 mM CaCl2, 1 mM MgCl2, 5 mM KCl, 10 mM HEPES, and 10 mM glucose (pH=7.4, adjusted with NaOH). IC50 values were determined in HEK293T or ND7/23 cell lines by voltage clamping at −80 mV, followed by stepping to the V1/2 of inactivation for 8 s to facilitate compound binding.

T1 sequence (Q15858 whole entry): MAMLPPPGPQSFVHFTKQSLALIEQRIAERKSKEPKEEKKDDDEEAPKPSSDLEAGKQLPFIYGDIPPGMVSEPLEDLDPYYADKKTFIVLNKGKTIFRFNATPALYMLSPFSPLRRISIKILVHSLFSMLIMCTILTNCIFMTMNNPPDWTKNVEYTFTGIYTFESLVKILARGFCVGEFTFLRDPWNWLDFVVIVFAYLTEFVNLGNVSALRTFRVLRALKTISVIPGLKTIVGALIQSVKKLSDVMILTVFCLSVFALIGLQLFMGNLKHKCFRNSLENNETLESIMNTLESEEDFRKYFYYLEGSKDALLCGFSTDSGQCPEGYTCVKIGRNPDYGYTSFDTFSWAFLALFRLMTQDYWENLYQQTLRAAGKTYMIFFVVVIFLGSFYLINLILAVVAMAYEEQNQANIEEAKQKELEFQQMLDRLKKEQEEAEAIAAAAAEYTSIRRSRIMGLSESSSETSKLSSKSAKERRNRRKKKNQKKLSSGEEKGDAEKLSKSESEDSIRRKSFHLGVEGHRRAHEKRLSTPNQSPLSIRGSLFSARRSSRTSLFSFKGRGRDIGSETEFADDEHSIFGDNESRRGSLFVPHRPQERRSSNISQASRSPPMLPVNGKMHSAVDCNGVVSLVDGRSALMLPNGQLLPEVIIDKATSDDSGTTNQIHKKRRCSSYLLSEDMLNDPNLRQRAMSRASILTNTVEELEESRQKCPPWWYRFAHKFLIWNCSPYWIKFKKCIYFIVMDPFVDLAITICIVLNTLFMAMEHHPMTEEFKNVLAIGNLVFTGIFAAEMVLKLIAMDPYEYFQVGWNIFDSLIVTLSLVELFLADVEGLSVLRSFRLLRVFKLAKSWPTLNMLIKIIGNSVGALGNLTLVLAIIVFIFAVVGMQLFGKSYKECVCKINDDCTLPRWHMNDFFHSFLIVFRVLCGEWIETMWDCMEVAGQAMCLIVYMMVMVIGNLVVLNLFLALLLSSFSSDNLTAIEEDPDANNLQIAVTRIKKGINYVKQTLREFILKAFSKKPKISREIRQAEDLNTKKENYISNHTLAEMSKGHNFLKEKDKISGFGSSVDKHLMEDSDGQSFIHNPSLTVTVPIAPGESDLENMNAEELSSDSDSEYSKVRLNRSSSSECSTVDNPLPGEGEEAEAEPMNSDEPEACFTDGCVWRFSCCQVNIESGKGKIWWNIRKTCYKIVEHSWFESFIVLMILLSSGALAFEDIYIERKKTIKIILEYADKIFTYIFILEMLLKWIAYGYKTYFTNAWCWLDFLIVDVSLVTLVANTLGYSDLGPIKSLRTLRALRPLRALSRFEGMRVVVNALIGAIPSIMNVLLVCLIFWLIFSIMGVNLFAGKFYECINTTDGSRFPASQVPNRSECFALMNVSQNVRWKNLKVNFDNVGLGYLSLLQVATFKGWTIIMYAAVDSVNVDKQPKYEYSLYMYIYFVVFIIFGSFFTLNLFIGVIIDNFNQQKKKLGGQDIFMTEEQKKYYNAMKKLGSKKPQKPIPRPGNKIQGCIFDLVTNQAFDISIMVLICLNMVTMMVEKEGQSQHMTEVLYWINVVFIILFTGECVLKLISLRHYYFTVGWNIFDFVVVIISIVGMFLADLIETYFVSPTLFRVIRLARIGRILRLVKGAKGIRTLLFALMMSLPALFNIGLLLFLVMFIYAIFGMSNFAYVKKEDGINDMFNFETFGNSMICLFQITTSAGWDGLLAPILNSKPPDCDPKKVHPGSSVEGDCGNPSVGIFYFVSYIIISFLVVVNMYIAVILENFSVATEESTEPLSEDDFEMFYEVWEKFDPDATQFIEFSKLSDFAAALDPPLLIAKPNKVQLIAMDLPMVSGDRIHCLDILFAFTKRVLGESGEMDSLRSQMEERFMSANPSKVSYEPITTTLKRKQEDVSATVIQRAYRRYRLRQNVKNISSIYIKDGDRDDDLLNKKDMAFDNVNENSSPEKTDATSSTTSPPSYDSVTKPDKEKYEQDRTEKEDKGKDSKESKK
T1 sequence (Q07699 19-218 partner): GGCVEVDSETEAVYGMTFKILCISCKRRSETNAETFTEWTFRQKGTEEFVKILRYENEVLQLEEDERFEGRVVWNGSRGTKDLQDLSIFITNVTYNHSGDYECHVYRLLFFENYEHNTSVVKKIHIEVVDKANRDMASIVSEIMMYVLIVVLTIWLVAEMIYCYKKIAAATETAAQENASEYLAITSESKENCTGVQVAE
T1 sequence (O60939 30-215 partner): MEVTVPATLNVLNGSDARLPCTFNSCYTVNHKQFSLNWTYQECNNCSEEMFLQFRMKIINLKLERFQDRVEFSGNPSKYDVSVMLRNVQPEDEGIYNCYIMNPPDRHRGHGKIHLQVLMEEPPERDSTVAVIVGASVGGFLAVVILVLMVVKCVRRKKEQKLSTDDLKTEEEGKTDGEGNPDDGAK

Row | Compound | inhibition at 10 µM [%] | Inhibitory activity (10 μM)
1 | COc1ccc(Cn2cc(C(CC(=O)NCCc3ccccn3)c3cccc(Cl)c3)c3ccccc32)cc1 (centres unmarked) [B30, COC1=CC=C(C=C1)CN2C=C(C3=CC=CC=C32)C(CC(=O)NCCC4=CC=CC=N4)C5=CC(=CC=C5)Cl] | 8.62 | 
2 | O=C(CC(c1ccc(C(F)(F)F)cc1)c1cn(Cc2ccc(F)cc2)c2ccccc12)N1CCCC1 (centres unmarked) [B25, C1CCN(C1)C(=O)CC(C2=CC=C(C=C2)C(F)(F)F)C3=CN(C4=CC=CC=C43)CC5=CC=C(C=C5)F] | 23.1 | 
3 | CC(C)CNC(=O)CC(c1ccc(C(F)(F)F)cc1)c1cn(Cc2ccccc2)c2ccccc12 (centres unmarked) [B34, CC(C)CNC(=O)CC(C1=CC=C(C=C1)C(F)(F)F)C2=CN(C3=CC=CC=C32)CC4=CC=CC=C4] | 13.4 | 
4 | COc1ccc(Cn2cc(C(CC(=O)NCCc3ccccn3)c3cc(C)ccc3F)c3ccccc32)cc1 (centres unmarked) [B12, CC1=CC(=C(C=C1)F)C(CC(=O)NCCC2=CC=CC=N2)C3=CN(C4=CC=CC=C43)CC5=CC=C(C=C5)OC] | 4.98 | 
5 | O=C(C1CCCN1C(=O)c1csc(Nc2ccc(F)cc2)n1)N1CCOCC1 (centres unmarked) [B39, C1CC(N(C1)C(=O)C2=CSC(=N2)NC3=CC=C(C=C3)F)C(=O)N4CCOCC4] | 16.7 | 
6 | CC(=O)N1CCc2nc3sc(C(=O)Nc4cccc(C#N)c4)c(N)c3c(C(F)(F)F)c2C1 [A12, CC(=O)N1CCC2=C(C1)C(=C3C(=C(SC3=N2)C(=O)NC4=CC=CC(=C4)C#N)N)C(F)(F)F] | 9.32 | 
7 | CS(=O)(=O)c1ccc2nc(NC(=O)Nc3ccc(Cl)c(Cl)c3)sc2c1 [A11, CS(=O)(=O)C1=CC2=C(C=C1)N=C(S2)NC(=O)NC3=CC(=C(C=C3)Cl)Cl] | 4.91 | 
8 | COc1ccc(Cn2cc(C(CC(=O)NCCc3ccccn3)c3ccc(OC)cc3)c3ccccc32)cc1 (centres unmarked) [B29, COC1=CC=C(C=C1)CN2C=C(C3=CC=CC=C32)C(CC(=O)NCCC4=CC=CC=N4)C5=CC=C(C=C5)OC] | 9.42 | 
9 | O=C(CC(c1ccc(C(F)(F)F)cc1)c1cn(Cc2ccccc2)c2ccccc12)NCc1ccncc1 (centres unmarked) [B36, C1=CC=C(C=C1)CN2C=C(C3=CC=CC=C32)C(CC(=O)NCC4=CC=NC=C4)C5=CC=C(C=C5)C(F)(F)F] | 17.2 | 
10 | (C)C(CC(=O)NCCC1=CC=CC=N1)C2=CN(C3=CC=CC=C32)CC4=CC=CC=C4 [B37] |  | 19.13% ± 16.30%
11 | COc1cc(OC)cc(C(CC(=O)NCCc2ccccn2)c2cn(Cc3ccccc3)c3ccccc23)c1 (centres unmarked) [B22, COC1=CC(=CC(=C1)C(CC(=O)NCCC2=CC=CC=N2)C3=CN(C4=CC=CC=C43)CC5=CC=CC=C5)OC] | 45 | 
12 | O=C(CN(C(=O)c1ccc(Cl)cc1)C1CC1)Nc1nc(-c2ccccc2)cn1-c1ccccc1 [A4, C1CC1N(CC(=O)NC2=NC(=CN2C3=CC=CC=C3)C4=CC=CC=C4)C(=O)C5=CC=C(C=C5)Cl] | 76.4 | 
13 | Brc1ccc(-c2nc(-c3ccc(Oc4ccccc4)cc3)c(-c3ccc(Oc4ccccc4)cc3)[nH]2)cc1 [A9, C1=CC=C(C=C1)OC2=CC=C(C=C2)C3=C(N=C(N3)C4=CC=C(C=C4)Br)C5=CC=C(C=C5)OC6=CC=CC=C6] | 4.44 | 
14 | Cc1ccc(Cn2cc(C(CC(=O)NCCc3ccccn3)c3ccc(F)cc3)c3ccccc32)cc1 (centres unmarked) [B18, CC1=CC=C(C=C1)CN2C=C(C3=CC=CC=C32)C(CC(=O)NCCC4=CC=CC=N4)C5=CC=C(C=C5)F] | 13.7 | 
15 | O=C(CC(c1cccc(C(F)(F)F)c1)c1cn(Cc2ccc(F)cc2)c2ccccc12)NCc1ccncc1 (centres unmarked) [B35, C1=CC=C2C(=C1)C(=CN2CC3=CC=C(C=C3)F)C(CC(=O)NCC4=CC=NC=C4)C5=CC(=CC=C5)C(F)(F)F] | 15.6 | 
16 | COCCNC(=O)CC(c1ccc(OCc2ccccc2)c(OC)c1)c1cn(Cc2ccc(F)cc2)c2ccccc12 (centres unmarked) [A5, COCCNC(=O)CC(C1=CC(=C(C=C1)OCC2=CC=CC=C2)OC)C3=CN(C4=CC=CC=C43)CC5=CC=C(C=C5)F] | 3.57 | 
17 | O=C(CC(c1ccc(C(F)(F)F)cc1)c1cn(Cc2ccc(F)cc2)c2ccccc12)NCc1ccncc1 (centres unmarked) [B23, C1=CC=C2C(=C1)C(=CN2CC3=CC=C(C=C3)F)C(CC(=O)NCC4=CC=NC=C4)C5=CC=C(C=C5)C(F)(F)F] | 18.2 | 
